Results reported in ChEMBL document CHEMBL5346980 (J Med Chem, 2023).

Assays:
Carbonic anhydrase 2 = Carbonic anhydrase 2 (Homo sapiens, UniProt P00918); assay: Inhibition of recombinant human carbonic anhydrase 2 incubated for 15 mins prior to testing by phenol red based stopped-flow CO2 hydration assay
Carbonic anhydrase 1 = Carbonic anhydrase 1 (Homo sapiens, UniProt P00915); assay: Inhibition of recombinant human carbonic anhydrase 1 incubated for 15 mins prior to testing by phenol red based stopped-flow CO2 hydration assay
[1] = target: T1, Vascular endothelial growth factor receptor 2 (Homo sapiens, UniProt P35968)
HepG2 = assay: cells; conditions: Homo sapiens
Description: Cytotoxicity against human HepG2 cells by MTT assay

[2] = target: T1, Vascular endothelial growth factor receptor 2; remark: listed apart in the source
Description: Inhibition of human VEGFR-2 by ELISA

T1 sequence (P35968 whole entry): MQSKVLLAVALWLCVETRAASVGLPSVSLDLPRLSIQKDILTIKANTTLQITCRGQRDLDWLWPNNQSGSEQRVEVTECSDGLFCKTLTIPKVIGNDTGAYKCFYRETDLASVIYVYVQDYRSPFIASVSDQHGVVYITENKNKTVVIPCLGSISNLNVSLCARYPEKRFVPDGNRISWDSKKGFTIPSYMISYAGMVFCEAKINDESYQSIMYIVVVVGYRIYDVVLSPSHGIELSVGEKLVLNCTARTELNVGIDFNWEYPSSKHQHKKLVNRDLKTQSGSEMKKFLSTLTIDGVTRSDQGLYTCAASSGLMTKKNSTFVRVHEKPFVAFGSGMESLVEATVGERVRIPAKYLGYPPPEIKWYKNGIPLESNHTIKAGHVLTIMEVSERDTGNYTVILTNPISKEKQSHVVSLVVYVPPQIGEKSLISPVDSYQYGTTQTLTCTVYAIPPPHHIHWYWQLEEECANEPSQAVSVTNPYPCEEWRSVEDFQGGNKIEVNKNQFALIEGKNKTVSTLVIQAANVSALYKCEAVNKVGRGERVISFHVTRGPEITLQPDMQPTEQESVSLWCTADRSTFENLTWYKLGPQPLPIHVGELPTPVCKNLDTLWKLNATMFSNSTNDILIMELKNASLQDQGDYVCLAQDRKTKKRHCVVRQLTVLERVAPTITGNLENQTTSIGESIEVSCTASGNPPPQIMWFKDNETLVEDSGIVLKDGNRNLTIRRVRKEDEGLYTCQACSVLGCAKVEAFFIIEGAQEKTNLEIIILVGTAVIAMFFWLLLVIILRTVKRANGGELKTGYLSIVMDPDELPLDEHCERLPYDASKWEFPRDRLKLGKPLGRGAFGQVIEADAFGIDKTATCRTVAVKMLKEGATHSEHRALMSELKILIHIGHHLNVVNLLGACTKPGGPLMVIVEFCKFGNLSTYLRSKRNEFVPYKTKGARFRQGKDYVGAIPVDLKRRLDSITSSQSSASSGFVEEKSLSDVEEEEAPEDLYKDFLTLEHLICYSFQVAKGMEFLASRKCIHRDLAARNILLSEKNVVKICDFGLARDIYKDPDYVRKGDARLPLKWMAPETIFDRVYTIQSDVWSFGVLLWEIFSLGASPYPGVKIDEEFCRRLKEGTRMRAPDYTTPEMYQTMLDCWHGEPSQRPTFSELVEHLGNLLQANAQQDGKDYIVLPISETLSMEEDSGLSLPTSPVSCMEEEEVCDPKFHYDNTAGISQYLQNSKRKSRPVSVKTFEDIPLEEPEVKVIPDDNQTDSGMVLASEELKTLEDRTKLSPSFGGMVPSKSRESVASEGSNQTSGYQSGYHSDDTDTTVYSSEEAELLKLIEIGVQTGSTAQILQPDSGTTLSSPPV
Chain of Carbonic anhydrase 1 (P00915 whole entry): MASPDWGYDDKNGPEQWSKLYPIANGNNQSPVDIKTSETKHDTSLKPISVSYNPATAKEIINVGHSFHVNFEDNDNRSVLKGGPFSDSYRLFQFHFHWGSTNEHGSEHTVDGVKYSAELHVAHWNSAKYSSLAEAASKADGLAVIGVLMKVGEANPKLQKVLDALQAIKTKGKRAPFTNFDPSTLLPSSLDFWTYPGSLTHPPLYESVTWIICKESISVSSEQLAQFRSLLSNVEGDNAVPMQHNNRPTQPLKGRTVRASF

| Structure (SMILES) | Ki (Carbonic anhydrase 2) | Ki (Carbonic anhydrase 1) | IC50 [1] | IC50 (HepG2) | IC50 [2] |
| --- | --- | --- | --- | --- | --- |
| COc1ccc(-n2nc(NC(=O)Nc3ccc(C)c(S(N)(=O)=O)c3)nc2-c2ccccc2)cc1OC | 547 nM | – | – | – | – |
| COc1ccc(-n2nc(NC(=O)NCCc3ccc(S(N)(=O)=O)cc3)nc2-c2ccccc2)cc1 | – | 82.7 nM | – | – | – |
| NS(=O)(=O)c1ccc(CCNC(=O)Nc2nc(-c3ccccc3)n(-c3ccc(F)cc3)n2)cc1 | 3.4 nM | 39.8 nM | – | – | – |
| Cc1ccc(NC(=O)Nc2nc(-c3ccccc3)n(-c3cccc(Cl)c3)n2)cc1S(N)(=O)=O | 91.4 nM | > 10000 nM | 96.2 nM | – | – |
| COc1cc(-c2nc(C(=O)Nc3ccccc3)nn2-c2ccc(F)c(Cl)c2)cc(OC)c1OC | – | – | – | 240 nM | 19.8 nM |
| COc1ccc(-n2nc(NC(=O)NCCc3ccc(S(N)(=O)=O)cc3)nc2-c2ccccc2)cc1OC | 16.4 nM | 153 nM | – | – | – |
| COc1ccc(-n2nc(NC(=O)Nc3cccc(S(N)(=O)=O)c3)nc2-c2ccccc2)cc1 | 56 nM | 4190 nM | 183 nM | – | – |
| COc1ccc(-n2nc(NC(=O)Nc3ccc(S(N)(=O)=O)cc3)nc2-c2ccccc2)cc1 | 29.4 nM | 3870 nM | – | – | – |
| COc1cccc(-n2nc(NC(=O)Nc3ccc(S(N)(=O)=O)cc3)nc2-c2ccccc2)c1 | 13.6 nM | – | – | – | – |
| COc1ccc(-n2nc(NC(=O)Nc3cccc(S(N)(=O)=O)c3)nc2-c2ccccc2)cc1OC | 285 nM | > 10000 nM | – | – | – |
| COc1cccc(-n2nc(NC(=O)NCCc3ccc(S(N)(=O)=O)cc3)nc2-c2ccccc2)c1 | 35.8 nM | 104 nM | – | – | – |
| COc1cccc(-n2nc(NC(=O)Nc3cccc(S(N)(=O)=O)c3)nc2-c2ccccc2)c1 | 91.5 nM | 9430 nM | – | – | – |
| COc1ccc(-n2nc(NC(=O)Nc3ccc(C)c(S(N)(=O)=O)c3)nc2-c2ccccc2)cc1 | 72.4 nM | – | 717 nM | – | – |
| COc1ccc(-n2nc(NC(=O)Nc3ccc(S(N)(=O)=O)cc3)nc2-c2ccccc2)cc1OC | 16.9 nM | – | – | – | – |
| COc1cccc(-n2nc(NC(=O)Nc3ccc(C)c(S(N)(=O)=O)c3)nc2-c2ccccc2)c1 | 230 nM | > 10000 nM | – | – | – |
| NS(=O)(=O)c1ccc(CCNC(=O)Nc2nc(-c3ccccc3)n(-c3cccc(Cl)c3)n2)cc1 | 20.1 nM | 61.8 nM | – | – | – |

Continued, values first:

| Ki (Carbonic anhydrase 2) | Ki (Carbonic anhydrase 1) | IC50 [1] | IC50 (HepG2) | IC50 [2] | Structure (SMILES) |
| --- | --- | --- | --- | --- | --- |
| 101 nM | 5820 nM | – | – | – | NS(=O)(=O)c1cccc(NC(=O)Nc2nc(-c3ccccc3)n(-c3cccc(Cl)c3)n2)c1 |
| 99 nM | 4900 nM | – | – | – | NS(=O)(=O)c1cccc(NC(=O)Nc2nc(-c3ccccc3)n(-c3ccc(F)cc3)n2)c1 |
| – | > 10000 nM | – | – | – | NS(=O)(=O)c1ccccc1NC(=O)Nc1nc(-c2ccccc2)n(-c2cccc(Cl)c2)n1 |
| 158 nM | > 10000 nM | – | – | – | COc1cccc(-n2nc(NC(=O)Nc3ccccc3S(N)(=O)=O)nc2-c2ccccc2)c1 |
| 84.6 nM | – | 318 nM | – | – | NS(=O)(=O)c1ccc(NC(=O)Nc2nc(-c3ccccc3)n(-c3ccc(Cl)cc3)n2)cc1 |
| 158 nM | > 10000 nM | – | – | – | COc1ccc(-n2nc(NC(=O)Nc3ccccc3S(N)(=O)=O)nc2-c2ccccc2)cc1 |
| 112 nM | > 10000 nM | – | – | – | COc1ccc(-n2nc(NC(=O)Nc3ccccc3S(N)(=O)=O)nc2-c2ccccc2)cc1OC |
| 41.7 nM | – | – | – | – | NS(=O)(=O)c1ccc(CCNC(=O)Nc2nc(-c3ccccc3)n(-c3ccc(Cl)cc3)n2)cc1 |
| 384 nM | > 10000 nM | – | – | – | NS(=O)(=O)c1ccccc1NC(=O)Nc1nc(-c2ccccc2)n(-c2ccc(F)cc2)n1 |
| – | 2690 nM | > 1000 nM | – | – | NS(=O)(=O)c1ccc(NC(=O)Nc2nc(-c3ccccc3)n(-c3cccc(Cl)c3)n2)cc1 |
| – | 8260 nM | – | – | – | NS(=O)(=O)c1cccc(NC(=O)Nc2nc(-c3ccccc3)n(-c3ccc(Cl)cc3)n2)c1 |
| 170 nM | > 10000 nM | – | – | – | Cc1ccc(NC(=O)Nc2nc(-c3ccccc3)n(-c3ccc(F)cc3)n2)cc1S(N)(=O)=O |
| 25.2 nM | 2250 nM | – | – | – | NS(=O)(=O)c1ccc(NC(=O)Nc2nc(-c3ccccc3)n(-c3ccc(F)cc3)n2)cc1 |
| 241 nM | > 10000 nM | 271 nM | – | – | NS(=O)(=O)c1ccccc1NC(=O)Nc1nc(-c2ccccc2)n(-c2ccc(Cl)cc2)n1 |
| 127 nM | > 10000 nM | 541 nM | – | – | Cc1ccc(NC(=O)Nc2nc(-c3ccccc3)n(-c3ccc(Cl)cc3)n2)cc1S(N)(=O)=O |
